One compound from patent US12156862B2, “Medicaments for the treatment of vasoconstriction related diseases or disorders” (Sulfateq B.V., priority 2017, dated 2024) can be followed below.

In assay [1] the test system is porcine intrarenal arteries (histamine induced constrictions). Kind of assay: Histamine-induced constriction of isolated porcine intrarenal arteries. The following applies: for logEC50 of histamine-induced constriction responses: Porcine renalis. As to the method:
(§1) Porcine kidneys were obtained from a local slaughterhouse (Kroon Vlees, Gotenburgweg 30, 9723 TM Groningen. The Netherlands) and transported on ice in normal physiological Krebs buffer containing 120 mM NaCl, 6 mM KCl, 2.5 mM CaCl2×2H2O, 1.2 mM MgCl2×6H2O, 1.2 mM NaH2PO4×H2O, 25 mM NaHCO3 and 11.4 mM D-(+)-Glucose monohydrate (all ingredients were purchased from Merck) in ultrapure water.
(§2) The renal artery tree was dissected from the kidney, cleaned of surrounding connective tissue and cut into equally-sized ring segments (2 mm in length). In some rings, endothelium denudation was performed by gentle rubbing of the intimal surface with a paper clip. Rings were mounted in organ baths as described previously (Buikema et al., 2000). Arterial rings were washed thoroughly by replacing Krebs buffer and allowed to equilibrate for a period of 60 min under 1.4 g of resting tension before they were assessed for viability by inducing 2 subsequent constrictions with KCl (60 mM). […] After washout and stabilization, rings were treated for 30 minutes by incubation with vehicle (0.1% DMSO), SUL-121, SUL-150 or SUL-151, followed by subsequent incubation with cumulative doses of phenylephrine.
(§3) To gain insight into receptor specificity of SUL-150, the effects of SUL-150 on histamine and U46619 (a synthetic thromboxane agonist) induced constrictions were investigated (FIG. 2).

A further assay addresses T1, thromboxane receptors (Sus scrofa, UniProt A0A287A102).
T1 construct: from tissue; host or cells: porcine intrarenal artery rings
The assay can be described thus: U46619-induced constriction of isolated porcine intrarenal arteries. The following applies: for logEC50 of U46619-induced constriction responses: Porcine renalis. Here is the method: as §1, §2, §3

For assay [2], the target named is T2, human histamine H1 receptor (Homo sapiens, UniProt P35367).
T2 construct: HeLa cells endogenously expressing human histamine H1 receptor; endogenous in cells; host or cells: HeLa
T2 sequence (P35367 whole entry): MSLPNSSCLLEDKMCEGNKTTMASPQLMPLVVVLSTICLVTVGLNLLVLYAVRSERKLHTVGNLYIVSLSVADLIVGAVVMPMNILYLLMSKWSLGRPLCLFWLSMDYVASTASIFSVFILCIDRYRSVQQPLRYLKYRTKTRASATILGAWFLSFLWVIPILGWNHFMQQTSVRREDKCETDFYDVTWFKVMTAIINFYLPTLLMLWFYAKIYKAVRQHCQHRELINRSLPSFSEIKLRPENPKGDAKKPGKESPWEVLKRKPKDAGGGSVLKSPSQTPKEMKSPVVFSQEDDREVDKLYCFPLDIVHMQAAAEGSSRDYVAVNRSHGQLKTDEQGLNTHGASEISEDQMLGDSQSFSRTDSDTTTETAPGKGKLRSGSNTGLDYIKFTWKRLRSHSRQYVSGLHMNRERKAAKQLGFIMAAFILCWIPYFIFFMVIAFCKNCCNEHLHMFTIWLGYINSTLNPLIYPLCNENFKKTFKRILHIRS
The assay can be described thus: Histamine-induced intracellular calcium transients in HeLa cells. In kind it is cell-based. Here is the method:
(§4) HeLa cells endogenously expressing histamine and TP receptors were grown in DMEM-F12 medium enriched with 10% FBS and 1% penicillin-streptomycin. Cells were kept in a tissue culture incubator at 37° C. in […] atmosphere and grown in 75 cm^2 non-treated cell culture flasks. Plating was performed 24 hours before measurement on black transparent-bottom 96-well plates at 20,000 cells per well density.
(§5) To confirm specificity of SUL-150 for the α1 adrenoceptor additionally histamine and U46619 induced calcium transients were studied in HeLa cells endogenously expressing human histamine H1 receptor.
A general note: Calcium flux is commonly read through the fluorescence of an indicator in the cells.

The target in the next assay is T3, TP receptors (Homo sapiens, UniProt P21731).
T3 construct: HeLa cells endogenously expressing histamine and TP receptors; endogenous in cells; host or cells: HeLa
T3 sequence (P21731 1-343): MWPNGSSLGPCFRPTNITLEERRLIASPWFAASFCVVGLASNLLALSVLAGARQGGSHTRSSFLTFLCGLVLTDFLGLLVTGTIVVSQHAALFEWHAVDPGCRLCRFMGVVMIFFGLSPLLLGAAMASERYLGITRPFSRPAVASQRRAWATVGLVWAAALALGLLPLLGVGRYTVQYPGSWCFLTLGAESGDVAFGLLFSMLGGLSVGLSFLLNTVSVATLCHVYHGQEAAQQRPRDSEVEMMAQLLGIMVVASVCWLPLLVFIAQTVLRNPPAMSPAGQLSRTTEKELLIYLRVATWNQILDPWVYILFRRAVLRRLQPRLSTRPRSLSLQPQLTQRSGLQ
The assay can be described thus: U46619-induced intracellular calcium transients in HeLa cells. It counts as cell-based. As to the method:
as §4, §5

Assay [3] has as its target T4, human α1 adrenoceptor subtype D (Homo sapiens, UniProt P25100).
T4 construct: expressed in transfected cells; host or cells: CHO-K1
T4 sequence (P25100 1-572): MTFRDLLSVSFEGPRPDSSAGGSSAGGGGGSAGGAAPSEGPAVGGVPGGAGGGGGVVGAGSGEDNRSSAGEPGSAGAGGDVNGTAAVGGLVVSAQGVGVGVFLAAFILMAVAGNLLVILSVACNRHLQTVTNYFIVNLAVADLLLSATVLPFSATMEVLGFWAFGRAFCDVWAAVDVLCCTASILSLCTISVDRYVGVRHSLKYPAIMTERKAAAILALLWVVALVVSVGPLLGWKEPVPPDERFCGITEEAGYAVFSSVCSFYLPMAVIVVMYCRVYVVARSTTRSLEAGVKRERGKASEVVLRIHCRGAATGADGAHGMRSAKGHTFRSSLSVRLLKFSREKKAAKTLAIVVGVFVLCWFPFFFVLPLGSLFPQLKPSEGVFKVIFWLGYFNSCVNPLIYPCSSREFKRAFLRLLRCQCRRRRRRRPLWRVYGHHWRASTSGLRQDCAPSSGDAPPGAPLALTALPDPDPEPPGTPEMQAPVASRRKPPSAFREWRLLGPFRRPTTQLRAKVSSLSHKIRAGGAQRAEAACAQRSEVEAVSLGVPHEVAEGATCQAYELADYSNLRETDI
Kind of assay: Phenylephrine-induced intracellular calcium (FLIPR Calcium 6) in CHO cells, α1D. In kind it is cell-based. As to the method: CHO-K1 cells were stably transfected with a plasmid containing human al-AR subtypes A, B and D in separate cell lines in DMEM-F12 medium with 10% FBS, 1% penicillin-streptomycin and 200 μg/mL Geneticin (G418, Invitrogen, Carlsbad, CA).
On the next day, CHO cells were treated with either vehicle (0.1% DMSO) or SUL-121 enantiomers for 30 min at 37° C. and stimulated with a 3-fold dilution series of PE (20 μM-100 pM). [Ca^2], was measured using the fluorescent FLIPR Calcium 6 assay kit (Molecular Devices) in immortalized CHO cells stably expressing the α1 adrenoceptor.
Initially, calcium responses induced by non-cumulative concentration series of phenylephrine were investigated using fluorescent measurements in α1A adrenoceptor-overexpressing CHO cells treated with SUL-150 and SUL-151 (FIG. 4). Fluorescent measurement data was processed and analyzed in SoftMax Pro 7 and expressed as % of baseline AUC with a 3-fold multiplier using an average of first 10 measurement points as baseline.

[4] abbreviates: 10 μM SUL-150, calcium transients.
[5] abbreviates: 30 μM SUL-150, calcium transients.
Where [6] appears, read: 100 μM SUL-150, calcium transients.

T1 sequence (A0A287A102 1-343): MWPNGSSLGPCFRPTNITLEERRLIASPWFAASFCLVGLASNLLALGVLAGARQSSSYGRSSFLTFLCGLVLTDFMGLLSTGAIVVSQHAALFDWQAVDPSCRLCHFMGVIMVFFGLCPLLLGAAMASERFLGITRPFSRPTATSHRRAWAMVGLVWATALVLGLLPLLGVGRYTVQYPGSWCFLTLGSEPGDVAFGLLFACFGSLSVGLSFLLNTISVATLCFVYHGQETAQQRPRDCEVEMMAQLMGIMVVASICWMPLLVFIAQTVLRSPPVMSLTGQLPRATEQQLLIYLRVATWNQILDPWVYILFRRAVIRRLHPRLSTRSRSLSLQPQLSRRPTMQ

With `Cc1c(C)c2c(c(C)c1O)CC[C@](C)(C(=O)N1CCNCC1)O2` [SUL-150, (R)(6-hydroxy-2,5,7,8-tetramethylchroman-2-yl)(piperazin-1-yl)methanone], the entries for the “logEC50 of histamine-induced constriction responses” value in assay [1] (30 μM SUL-150) and in assay [1] (100 μM SUL-150) were −4.86 ± 0.08 and −4.85 ± 0.10, respectively. For the same compound, in assay [1] (30 μM and 100 μM, in words), the “effect on constriction responses to histamine” value is listed as “did not affect”. The “logEC50 of U46619-induced constriction responses” value at thromboxane receptors (30 μM SUL-150) is given as −7.58 ± 0.06; at thromboxane receptors (100 μM SUL-150) it was −7.50 ± 0.04. Moreover, the “shift in EC50 of U46619-induced constrictions” value on thromboxane receptors (100 μM SUL-150, in words) is “small effect size”. In addition, the “logEC50 of histamine-induced response, HeLa cells” value was −6.45 ± 0.05 in assay [2] (setting [4]), −6.39 ± 0.05 in assay [2] (setting [5]) and −6.29 ± 0.06 in assay [2] (setting [6]). Also, the “effect on histamine induced calcium transients” value in assay [2] (in words) is given as “did not significantly affect”. Further, the “logEC50 of U46619-induced response, HeLa cells” value on TP receptors (setting [4]) is −6.83 ± 0.10; at TP receptors (setting [5]), −6.78 ± 0.18; on TP receptors (setting [6]) it was −6.75 ± 0.10. Besides, on TP receptors (in words), the “effect on U46619 induced calcium transients” value is listed as “did not significantly affect”. Also, the “logEC50 of phenylephrine-induced calcium influx, α1D” value is −7.37 ± 0.10 in assay [3] (10 μM test compound), −7.04 ± 0.06 in assay [3] (30 μM test compound) and −6.80 ± 0.10 in assay [3] (100 μM test compound). Moreover, the “effect on PE-induced calcium transients, α1 adrenoceptor subtype D” value in assay [3] (in words) is recorded as “shifted dose response curves rightwards”.
